US9408387B2, “Safening 6-amino-2-(substituted phenyl)-5-substituted-4-pyrimidinecarboxylate herbicide injury on cereal crops” (Dow AgroSciences LLC, priority 2009, dated 2016)

Assays:
Assay type in all cases: in vivo
CIRAR = assay: Postemergence herbicidal activity, greenhouse, visual injury: CIRAR; details: for CIRAR Ob (visual injury): 20-22 d
Experimental: (§1) Evaluation of Postemergence Herbicidal Safening in Cereal Crops
(§2) Seeds of the desired test plant species were planted in Sun Gro MetroMix® 306 planting mixture, which typically has a pH of 6.0 to 6.8 and an organic matter content of about 30 percent, in plastic pots with a surface area of 103.2 square centimeters (cm^2). When required to ensure good germination and healthy plants, a fungicide treatment and/or other chemical or physical treatment was applied. The plants were grown for 7-36 days (d) in a greenhouse with an approximate 14-hour (h) photoperiod which was maintained at about 18° C. during the day and 17° C. during the night. Nutrients and water were added on a regular basis and supplemental lighting was provided with overhead metal halide 1000-Watt lamps as necessary. The plants were employed for testing when they reached the second or third true leaf stage.
(§3) Treatments consisted of the acids or esters of compounds 1-10 and cloquintocet-mexyl (CQC-M), fenchlorazole-ethyl, mefenpyr-diethyl alone and in combination. Weighed amounts of acid or methyl esters of the compounds of formula (I) were dissolved in a volume of 97:3 v/v acetone/dimethylsulfoxide (DMSO) to obtain concentrated solutions. […] The concentrated solutions of the test compound were diluted with the addition of an aqueous mixture containing acetone, water, isopropyl alcohol, DMSO, Agri-Dex crop oil concentrate, and Triton® X-77 surfactant in a 64.7:26.0:6.7:2.0:0.7:0.01 v/v ratio. Test compounds were diluted to the appropriate application rate with a dilution solution which was prepared by mixing the appropriate volume of 97:3 v/v acetone/DMSO and the appropriate volume of an aqueous mixture containing acetone, water, isopropyl alcohol, DMSO, Agri-Dex crop oil concentrate, and Triton® X-77 surfactant in a 64.7:26.0:6.7:2.0:0.7:0.01 v/v ratio. Compound requirements are based upon a 12 mL application volume at a rate of 187 liters per hectare (L/ha). The concentrated solutions of the safener were prepared following the same procedure. Weighed amounts of safener were dissolved in a volume of 97:3 v/v acetone/DMSO to obtain concentrated safener solutions.
(§4) Spray solutions of the herbicide safener and test compound mixtures were prepared by adding the concentrated solutions to the appropriate amount of dilution solution to form 12 mL spray solution with active ingredients in combinations.
(§5) Formulated compounds were applied to the plant material with an overhead Mandel track sprayer equipped with 8002E nozzles calibrated to deliver 187 L/ha over an application area of 0.503 square meters (m^2) at a spray height of 18 inches (43 centimeters (cm)) above average plant canopy. Control plants were sprayed in the same manner with the solvent blank.
(§6) The treated plants and control plants were placed in a greenhouse as described above and watered by sub-irrigation to prevent wash-off of the test compounds. After 20-22 d, the condition of the test plants as compared with that of the control plants was determined visually and scored on a scale of 0 to 100 percent where 0 corresponds to no injury and 100 corresponds to complete kill.
(§7) Colby's equation was used to determine the herbicidal effects expected from the mixtures (Colby, S. R. Calculation of the synergistic and antagonistic response of herbicide combinations. Weeds 1967, 15, 20-22.).
(§8) The following equation was used to calculate the expected activity of mixtures containing two active ingredients, A and B: Expected=A+B−(A×B/100)
(§9) A=observed efficacy of active ingredient A at the same concentration as used in the mixture.
(§10) B=observed efficacy of active ingredient B at the same concentration as used in the mixture.

[1] = tested on: wild pansy (Viola tricolor; VIOTR); assay: Postemergence herbicidal activity, greenhouse, visual injury: VIOTR
AMARE = assay: Postemergence herbicidal activity, greenhouse, visual injury: AMARE; details: 20-22 d
Experimental: as §1, §2, §3, §4, §5, §6, §7
The following equation was used to calculate the expected activity of mixtures containing two active ingredients, A and B: Expected=A+B−(A×B/100) […]

[2] = tested on: kochia (Kochia scoparia L; KCHSC); assay: Postemergence herbicidal activity, greenhouse, visual injury: kochia; details: for KCHSC Ob (visual injury): 20-22 d
Experimental: as §1, §2, §3, §4, §5, §6, §7, §8, §9, §10

[3] = tested on: spring wheat (Triticum aestivum L; TRZAS); assay: Postemergence herbicidal safening in cereal crops, greenhouse, visual injury: spring wheat
Experimental: as §1, §2, §3, §4, §5, §6, §7, §8, §9, §10

SASKR = assay: Postemergence herbicidal activity, greenhouse, visual injury: SASKR; details: for SASKR Ob (visual injury): 20-22 d
Experimental: as §1, §2, §3, §4, §5, §6, §7, §8, §9, §10

[4] = tested on: bird's-eye speedwell (Veronica persica L; VERPE); assay: Postemergence herbicidal activity, greenhouse, visual injury: bird's-eye speedwell
Experimental: as §1, §2, §3, §4, §5, §6, §7, §8, §9, §10

MATCH = assay: Postemergence herbicidal activity, greenhouse, visual injury: MATCH; details: for MATCH Ob (visual injury): 20-22 d
Experimental: as §1, §2, §3, §4, §5, §6, §7, §8, §9, §10

[5] = tested on: corn poppy (Papaver rhoeas L; PAPRH); assay: Postemergence herbicidal activity, greenhouse, visual injury: corn poppy; details: for PAPRH Ob (visual injury): 20-22 d
Experimental: as §1, §2, §3, §4, §5, §6, §7, §8, §9, §10

[6] = tested on: spring barley (Hordeum vulgare L; HORVS); assay: Postemergence herbicidal safening in cereal crops, greenhouse, visual injury: spring barley
Experimental: as §1, §2, §3, §4, §5, §6, §7, §8, §9, §10

[7] = Compound 10 0, CQC-M 8.75 g ae/ha
[8] = Compound 10 0, CQC-M 17.5 g ae/ha
[9] = Compound 10 0, CQC-M 35 g ae/ha
[10] = Compound 10 0, CQC-M 70 g ae/ha
[11] = Compound 10 0, CQC-M 140 g ae/ha

CCCCCC(C)OC(=O)COc1ccc(Cl)c2cccnc12 (stereo not shown) [CQC-M, cloquintocet-mexyl, reference compound]
0%: CIRAR Ob (Observed values, % control) (CIRAR; [7]) | CIRAR Ob (Observed values, % control) (CIRAR; [8]) | CIRAR Ob (Observed values, % control) (CIRAR; [9]) | CIRAR Ob (Observed values, % control) (CIRAR; [10]) | CIRAR Ob (Observed values, % control) (CIRAR; [11]) | CIRAR Ob (visual injury) (CIRAR; safener alone 70 g/ha) | CIRAR Ob (visual injury) (CIRAR; safener alone 140 g/ha) | VIOTR Ob (Observed values, % control) [1, 7] | VIOTR Ob (Observed values, % control) [1, 8] | VIOTR Ob (Observed values, % control) [1, 9] | VIOTR Ob (Observed values, % control) [1, 10] | VIOTR Ob (Observed values, % control) [1, 11] | AMARE Ob (visual injury) (AMARE; safener alone 35 g/ha) | AMARE Ob (visual injury) (AMARE; safener alone 70 g/ha) | AMARE Ob (visual injury) (AMARE; safener alone 140 g/ha) | KCHSC Ob (Observed values, % control) [2, 7] | KCHSC Ob (Observed values, % control) [2, 8] | KCHSC Ob (Observed values, % control) [2, 9] | KCHSC Ob (Observed values, % control) [2, 10] | KCHSC Ob (Observed values, % control) [2, 11] | KCHSC Ob (visual injury) ([2]; safener alone 8.75 g/ha) | KCHSC Ob (visual injury) ([2]; safener alone 70 g/ha) | KCHSC Ob (visual injury) ([2]; safener alone 140 g/ha) | pest or weed control at 0.547 g/ha ([3]; Triticum aestivum, post-emergence, 480 h, safener alone 0.547 g/ha, 20-22 d, read-out: TRZAS Ob (visual injury)) | pest or weed control at 2.1875 g/ha ([3]; Triticum aestivum, post-emergence, 480 h, safener alone 2.1875 g/ha, 20-22 d, read-out: TRZAS Ob (visual injury)) | pest or weed control at 8.75 g/ha ([3]; Triticum aestivum, post-emergence, 480 h, safener alone 8.75 g/ha, 20-22 d, read-out: TRZAS Ob (visual injury)) | pest or weed control at 35 g/ha ([3]; Triticum aestivum, post-emergence, 480 h, safener alone 35 g/ha, 20-22 d, read-out: TRZAS Ob (visual injury)) | pest or weed control at 140 g/ha ([3]; Triticum aestivum, post-emergence, 480 h, safener alone 140 g/ha, 20-22 d, read-out: TRZAS Ob (visual injury)) | TRZAS Ob (Observed values, % control) ([3]; in vivo) | SASKR Ob (Observed values, % control) (SASKR; [7]) | SASKR Ob (Observed values, % control) (SASKR; [8]) | SASKR Ob (Observed values, % control) (SASKR; [9]) | SASKR Ob (Observed values, % control) (SASKR; [10]) | SASKR Ob (Observed values, % control) (SASKR; [11]) | SASKR Ob (visual injury) (SASKR; safener alone 70 g/ha) | SASKR Ob (visual injury) (SASKR; safener alone 140 g/ha) | VERPE Ob (Observed values, % control) [4, 7] | VERPE Ob (Observed values, % control) [4, 8] | VERPE Ob (Observed values, % control) [4, 9] | VERPE Ob (Observed values, % control) [4, 10] | VERPE Ob (Observed values, % control) [4, 11] | VERPE Ob (visual injury) ([4]; safener alone 8.75 g/ha, 20-22 d) | MATCH Ob (Observed values, % control) (MATCH; [7]) | MATCH Ob (Observed values, % control) (MATCH; [8]) | MATCH Ob (Observed values, % control) (MATCH; [9]) | MATCH Ob (Observed values, % control) (MATCH; [10]) | MATCH Ob (Observed values, % control) (MATCH; [11]) | MATCH Ob (visual injury) (MATCH; safener alone 70 g/ha) | MATCH Ob (visual injury) (MATCH; safener alone 140 g/ha) | PAPRH Ob (Observed values, % control) [5, 7] | PAPRH Ob (Observed values, % control) [5, 8] | PAPRH Ob (Observed values, % control) [5, 9] | PAPRH Ob (Observed values, % control) [5, 10] | PAPRH Ob (Observed values, % control) [5, 11] | PAPRH Ob (visual injury) ([5]; safener alone 8.75 g/ha) | PAPRH Ob (visual injury) ([5]; safener alone 70 g/ha) | PAPRH Ob (visual injury) ([5]; safener alone 140 g/ha) | pest or weed control at 0.547 g/ha ([6]; Hordeum vulgare, post-emergence, 480 h, safener alone 0.547 g/ha, 20-22 d, read-out: HORVS Ob (visual injury)) | pest or weed control at 2.1875 g/ha ([6]; Hordeum vulgare, post-emergence, 480 h, safener alone 2.1875 g/ha, 20-22 d, read-out: HORVS Ob (visual injury)) | pest or weed control at 8.75 g/ha ([6]; Hordeum vulgare, post-emergence, 480 h, safener alone 8.75 g/ha, 20-22 d, read-out: HORVS Ob (visual injury)) | HORVS Ob (Observed values, % control) ([6]; in vivo)
